Measured values: patent US20150275254A1, “ENZYME LOADING, CELLULOSE HYDROLYSIS, AND INHIBITION OF CELLOBIOHYDROLASES USING LIQUID HOT WATER PRETREATMENT” (PURDUE RESEARCH FOUNDATION, priority 2014, published 2015)

Key:
Cellic Ctec2 = test: Enzymatic hydrolysis of LHW pretreated hardwood (severity log Ro=12.51) at different hydrolysis conditions (FIG. 6); assay type: biochemical, Trichoderma reesei; details: 200 mM NaCl at pH 4.8; 5 FPU (8 mg) Ctec2/g glucan, 72 hrs
Experimental: In this work, the lignocellulosic substrate was enzymatically hydrolyzed in order to study how the non-productive adsorption affected the enzymatic hydrolysis efficiency. The glucose yield of LHW pretreated hardwood containing 57.9% glucan and 40.3% lignin was measured for a low enzyme loading amount of 5 FPU (8 mg) Ctec2/g glucan at given conditions (FIG. 6). […] This might be due to the decreased cellulase activity at pH 5.5 as shown in microcrystalline cellulose (Avicel) hydrolysis. The overall decrease in T. reesei cellulase cocktail (Ctec2) adsorption onto lignins at elevated pHs was in agreement with the results by Lou et al. (2013). The reduced nonproductive adsorption led to the enhanced glucose yield more than twofold when the dilute acid or sulfite pretreated softwood was hydrolyzed with higher amount (10 FPU/g glucan) of cellulase (Lou et al., 2013).

[1] = molecular target: T1, β-glucosidase from A. niger (Aspergillus niger, UniProt A2RAL4); details: cited from earlier work
T1 sequence (A2RAL4 20-860): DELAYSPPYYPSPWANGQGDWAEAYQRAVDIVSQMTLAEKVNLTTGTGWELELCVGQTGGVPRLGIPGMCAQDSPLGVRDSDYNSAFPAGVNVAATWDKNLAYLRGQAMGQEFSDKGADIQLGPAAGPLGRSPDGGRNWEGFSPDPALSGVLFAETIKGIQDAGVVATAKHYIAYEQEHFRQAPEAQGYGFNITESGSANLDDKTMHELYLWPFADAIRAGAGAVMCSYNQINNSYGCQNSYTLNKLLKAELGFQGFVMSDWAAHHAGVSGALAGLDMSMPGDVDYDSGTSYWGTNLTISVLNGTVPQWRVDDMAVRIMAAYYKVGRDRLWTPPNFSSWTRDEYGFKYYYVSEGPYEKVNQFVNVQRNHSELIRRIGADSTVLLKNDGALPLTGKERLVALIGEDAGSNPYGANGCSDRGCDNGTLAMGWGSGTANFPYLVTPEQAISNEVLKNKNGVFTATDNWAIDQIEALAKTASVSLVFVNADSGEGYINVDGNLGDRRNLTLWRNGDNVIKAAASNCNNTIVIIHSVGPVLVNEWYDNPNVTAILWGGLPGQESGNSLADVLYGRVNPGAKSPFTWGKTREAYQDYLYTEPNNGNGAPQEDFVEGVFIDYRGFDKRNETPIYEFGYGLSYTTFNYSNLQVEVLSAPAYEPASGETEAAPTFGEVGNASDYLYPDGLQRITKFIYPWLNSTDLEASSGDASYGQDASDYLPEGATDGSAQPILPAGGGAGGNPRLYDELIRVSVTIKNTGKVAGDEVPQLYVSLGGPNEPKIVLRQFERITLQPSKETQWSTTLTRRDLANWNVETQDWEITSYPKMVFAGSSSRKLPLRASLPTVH

[2] = molecular target: β-glucosidase from T. reesei; details: cited from earlier work
[3] = adapted from literature; cited from earlier work

## [Cl-].[Na+] [NaCl]
Cellic Ctec2
  effect on glucose yield: did not affect the glucose yield

## O=C(O)c1cc(O)c(O)c(O)c1 [gallic acid]
[1]
  k, deactivation rate constant: 0.006 h⁻¹
[2]
  k, deactivation rate constant: 0.046 h⁻¹

## O=C(OC[C@H]1O[C@@H](OC(=O)c2cc(O)c(O)c(OC(=O)c3cc(O)c(O)c(O)c3)c2)[C@H](OC(=O)c2cc(O)c(O)c(OC(=O)c3cc(O)c(O)c(O)c3)c2)[C@@H](OC(=O)c2cc(O)c(O)c(OC(=O)c3cc(O)c(O)c(O)c3)c2)[C@@H]1OC(=O)c1cc(O)c(O)c(OC(=O)c2cc(O)c(O)c(O)c2)c1)c1cc(O)c(O)c(OC(=O)c2cc(O)c(O)c(O)c2)c1 [tannic acid]
[1]
  k, deactivation rate constant: 0.045 h⁻¹
[2]
  k, deactivation rate constant: 0.068 h⁻¹

B1: EGII: T. reesei enzyme, gene cel5a, GH5 (protein, UniProt P07982 22-418, looked up)
Endoglucanase EG-II: QQTVWGQCGGIGWSGPTNCAPGSACSTLNPYYAQCIPGATTITTSTRPPSGPTTTTRATSTSSSTPPTSSGVRFAGVNIAGFDFGCTTDGTCVTSKVYPPLKNFTGSNNYPDGIGQMQHFVNEDGMTIFRLPVGWQYLVNNNLGGNLDSTSISKYDQLVQGCLSLGAYCIVDIHNYARWNGGIIGQGGPTNAQFTSLWSQLASKYASQSRVWFGIMNEPHDVNINTWAATVQEVVTAIRNAGATSQFISLPGNDWQSAGAFISDGSAAALSQVTNPDGSTTNLIFDVHKYLDSDNSGTHAECTTNNIDGAFSPLATWLRQNNRQAILTETGGGNVQSCIQDMCQQIQYLNQNSDVYLGYVGWGAGSFDSTYVLTETPTSSGNSWTDTSLVSSCLARK
[3]
  Experimental pI: (4.2-5.5)

B2: CBHI: T. reesei enzyme, gene cel7a, GH7 (protein, UniProt P62694 18-513, looked up)
Exoglucanase 1: QSACTLQSETHPPLTWQKCSSGGTCTQQTGSVVIDANWRWTHATNSSTNCYDGNTWSSTLCPDNETCAKNCCLDGAAYASTYGVTTSGNSLSIGFVTQSAQKNVGARLYLMASDTTYQEFTLLGNEFSFDVDVSQLPCGLNGALYFVSMDADGGVSKYPTNTAGAKYGTGYCDSQCPRDLKFINGQANVEGWEPSSNNANTGIGGHGSCCSEMDIWEANSISEALTPHPCTTVGQEICEGDGCGGTYSDNRYGGTCDPDGCDWNPYRLGNTSFYGPGSSFTLDTTKKLTVVTQFETSGAINRYYVQNGVTFQQPNAELGSYSGNELNDDYCTAEEAEFGGSSFSDKGGLTQFKKATSGGMVLVMSLWDDYYANMLWLDSTYPTNETSSTPGAVRGSCSTSSGVPAQVESQSPNAKVTFSNIKFGPIGSTGNPSGGNPPGGNRGTTTTRRPATTTGSSPGPTQSHYGQCGGIGYSGPTVCASGTTCQVLNPYYSQCL
[3]
  Experimental pI: (3.6-3.9)

B3: EGI: T. reesei enzyme, gene cel7b, GH7 (protein, UniProt P07981 23-459, looked up)
Endoglucanase EG-1: QQPGTSTPEVHPKLTTYKCTKSGGCVAQDTSVVLDWNYRWMHDANYNSCTVNGGVNTTLCPDEATCGKNCFIEGVDYAASGVTTSGSSLTMNQYMPSSSGGYSSVSPRLYLLDSDGEYVMLKLNGQELSFDVDLSALPCGENGSLYLSQMDENGGANQYNTAGANYGSGYCDAQCPVQTWRNGTLNTSHQGFCCNEMDILEGNSRANALTPHSCTATACDSAGCGFNPYGSGYKSYYGPGDTVDTSKTFTIITQFNTDNGSPSGNLVSITRKYQQNGVDIPSAQPGGDTISSCPSASAYGGLATMGKALSSGMVLVFSIWNDNSQYMNWLDSGNAGPCSSTEGNPSNILANNPNTHVVFSNIRWGDIGSTTNSTAPPPPPASSTTFSTTRRSSTTSSSPSCTQTHWGQCGGIGYSGCKTCTSGTTCQYSNDYYSQCL
[3]
  Experimental pI: (3.9-4.5)

B4: CBHII: T. reesei enzyme, gene cel6a, GH6 (protein, UniProt P07987 25-471, looked up)
Exoglucanase 2: QACSSVWGQCGGQNWSGPTCCASGSTCVYSNDYYSQCLPGAASSSSSTRAASTTSRVSPTTSRSSSATPPPGSTTTRVPPVGSGTATYSGNPFVGVTPWANAYYASEVSSLAIPSLTGAMATAAAAVAKVPSFMWLDTLDKTPLMEQTLADIRTANKNGGNYAGQFVVYDLPDRDCAALASNGEYSIADGGVAKYKNYIDTIRQIVVEYSDIRTLLVIEPDSLANLVTNLGTPKCANAQSAYLECINYAVTQLNLPNVAMYLDAGHAGWLGWPANQDPAAQLFANVYKNASSPRALRGLATNVANYNGWNITSPPSYTQGNAVYNEKLYIHAIGPLLANHGWSNAFFITDQGRSGKQPTGQQQWGDWCNVIGTGFGIRPSANTGDSLLDSFVWVKPGGECDGTSDSSAPRFDSHCALPDALQPAPQAGAWFQAYFVQLLTNANPSFL
[3]
  Experimental pI: (5.2-5.9)
